Columns and labels:
[1] = Flavor profile determined by a trained panel of at least 5 testers; type: in vivo; conditions: trained panel of at least 5 testers, tasting against a 0.5% strength salt and a 0.5% strength sugar solution
Description: The flavor profiles were determined by a trained panel of at least 5 testers by tasting against a 0.5% strength salt and a 0.5% strength sugar solution

[2] = Flavor comparison in chicken aroma base (FIG. 2), panel of trained testers; type: in vivo; conditions: 1 ppm in chicken aroma base vs base with 0.2 wt. % standard aroma (containing MSG)
Source text: Here, a base for a chicken aroma is compared with (i) such a base having 1 ppm of the pure-enantiomer compound 1-((1S,2S,5R)-2-isopropyl-5-methyl-cyclohexyl)-3-(3-methoxy-propyl)-urea (1) added and (ii) with such a base having 0.2 wt. % of a standard aroma (containing MSG) added.
The flavor of the chicken base (solid dark line) was compared with the aid of tasting by a panel of trained testers with the flavor firstly of such a base to which 1 ppm of 1-((1S,2S,5R)-2-Isopropyl-5-methyl-cyclohexyl)-3-(3-methoxy-propyl)-urea (1) was added (solid light line), and secondly such a base to which 0.2 wt. % of a standard chicken aroma containing sodium glutamate was added (dotted line).
The testers evaluated the strength of the test directions indicated, in each case by specifying marks on a scale of from 0 (no corresponding flavor) to 8 (very strong corresponding flavor). The average values of the respective marks are represented.

Question: For `COCCCNC(=O)N[C@H]1C[C@H](C)CC[C@H]1C(C)C` [(1), 1-((1S,2S,5R)-2-isopropyl-5-methyl-cyclohexyl)-3-(3-methoxy-propyl)-urea], which “Flavor Profile” value [1] is on record?
Answer: salty, long-lasting, umami, no by notes

Question: And the “flavor character compared with standard aroma containing MSG” value [2]?
Answer: genuine MSG-like character
